Measured values: US10358453B2, “Antiviral compounds” (priority 2015, dated 2019)

Assays:
recombinant RSV complex = recombinant RSV complex (Human respiratory syncytial virus A, UniProt P28887); assay: RSV polymerase inhibition assay; assay type: biochemical; details: 10 nM recombinant RSV complex, 2 h at 30° C.; Table E = <1 μM, Table F = <50 μM; read-out: IC50
Method: Standard RSV polymerase assays were conducted in the presence of 10 nM recombinant RSV complex in a reaction buffer containing Tris-HCl pH7.5, 6 mM MgCl2, and other additives and substrates including RNA oligonucleotides and radionucleotides. Standard reactions were incubated in 96-well plate format for 2 h at 30° C., in the presence of increasing concentration of inhibitor. The reaction was stopped with 90 μL of 0.1M EDTA, and the reaction product was transferred to a “reading” 96-well plate. After washing of the plate, radiolabeled RNA products were detected according to standard procedures with a Trilux Topcount scintillation counter. The compound concentration at which the enzyme-catalyzed rate was reduced by 50% (IC50) was calculated by fitting the data to a non-linear regression (sigmoidal).

[1] = Cytotoxicity determination (CCK-8, without addition of virus); assay type: cell-based; details: human, HEp-2 cells (uninfected), no virus, Table C = greater than 100 μM, Table D = equal to or less than 100 μM and greater than 10 μM
Method: CPE reduction assays are performed as described by Sidwell and Huffman et al., Appl. Microbiol. (1971) 22(5):797-801 with slight modifications. HEp-2 cells (ATCC#, CCL-23) are seeded at a density of 1,500 cells/30 μL/well into the 384-well cell plate(s) (Corning#3701) one day prior to the assay. Compounds are added into 384-well cell plates by Labcyte POD 810 Plate Assembler system. Each of the test compounds is provided to duplicate wells of a 384-well cell plate at final concentrations starting from 100 μM or 1 μM using 1/3 stepwise dilutions for 9 points. Quick-thaw Respiratory Syncytial Virus (RSV) long strain (ATCC#VR-26) stock in a 37° C. water bath. Place on ice until ready to use. Viruses are diluted to the concentration of 100 TCID50/30 μL with medium and 30 μl diluted RSV are added into related wells of 384-well cell plates. For each plate, sixteen wells are set aside as uninfected, untreated cell controls (CC), and nine wells per test plate receive virus only as a control for virus replication (VC). The final DMSO concentration of all wells is 1%. Place the plates at 37° C., 5% CO2 for 5 days.
In order to determine the compound cytotoxicity, in parallel, each of the compounds is applied to duplicate wells in a 384-well cell plate at serial final concentrations starting from 100 μM using ½ stepwise dilutions for 7 points without addition of virus. Incubate the cells at 37° C., 5% CO2 for 5 days. Add 6 μL CCK-8 into each well and incubate in a CO2 incubator at 37° C. for 3-4 h. Read the plates to obtain the optical densities which are used to calculate 50% cytotoxicity concentration (CC50).

[2] = tested on: RSV subgenomic replicon 395 HeLa and APC126; assay: RSV subgenomic replicon assay (Renilla luciferase); assay type: cell-based; details: human respiratory syncytial virus; RSV replicon cells (395 HeLa 7 days or APC126 3 days); Table G = less than 1 μM, Table H = equal to or higher than 1 μM and less than 50 μM
Description: The RSV subgenomic replicon 395 HeLa and APC126 were licensed from Apath (Brooklyn, N.Y.) and were originally developed by Dr. Mark Meeples of Center for Vaccines & Immunity, the Research Institute at Nationwide Children's Hospital in Columbus, Ohio. To generate subgenomic RSV replicon, three glycoprotein genes, those for SH, G, and F, from a full-length recombinant GFP-expressing (rg) RSV antigenomic cDNA were deleted. In their place, a blasticidin S deaminase (bsd) gene was inserted. Through multiple steps, the RSV replicon was established in HeLa cells (395 Hela) or BHK cells (APC126). Both 395 HeLa and APC126 cells were cultured in Dulbecco's Modified Eagle Medium (DMEM) containing 4500 mg/L D-glucose, L-glutamine, and 110 mg/L sodium pyruvate (Invitrogen, Cat. #11995-040). The medium was further supplemented with 10% (v/v) fetal bovine serum (FBS) (Mediatech, Cat. #35-010-CV), 1% (v/v) penicillin/streptomycin (Mediatech, Cat. #30-002-CI), and 10 μg/mL of Blasticidin (BSD) (Invivogen, Cat. code ant-bl-1). Cells were maintained at 37° C. in a humidified 5% CO2 atmosphere.
Determination of 50% inhibitory concentration (EC50), 90% inhibitory concentration (EC90) and 50% cytotoxic concentration (CC50) in RSV replicon cells were performed by the following procedure. On the first day, 5000 RSV replicon cells per well were plated in a 96-well plate. On the following day, compounds to be tested were solubilized in 100% DMSO to 100X the desired final testing concentration. Each compound was serially diluted (1:3) up to 9 distinct concentrations. Compounds in 100% DMSO were reduced to 10% (v/v) DMSO by diluting 1:10 in cell culture media. A 10 μL sample of the compounds diluted to 10% (v/v) DMSO with cell culture media was used to treat the RSV replicon cells in 96-well format. The final DMSO concentration was 1% (v/v). Cells were incubated with compounds for 7 days (for 395Hela) or 3 days (for APC126) at 37° C. in a 5% CO2 atmosphere. In each assay, positive control that was previously characterized in the RSV replicon assay was included.
The Renilla Luciferase Assay System (Promega, Cat. #E2820) was used to measure anti-RSV replicon activity. Assay plates were set up as stated above. Luminescence was recorded using a Perkin Elmer multilabel counter Victor3V. EC50, the concentration of the drug required for reducing RSV replicon RNA by 50% in relation to the untreated cell control value, was calculated from the plot of percentage reductions of the […] against the drug concentrations using the Microsoft Excel forecast function.

Sequence of recombinant RSV complex (P28887 whole entry): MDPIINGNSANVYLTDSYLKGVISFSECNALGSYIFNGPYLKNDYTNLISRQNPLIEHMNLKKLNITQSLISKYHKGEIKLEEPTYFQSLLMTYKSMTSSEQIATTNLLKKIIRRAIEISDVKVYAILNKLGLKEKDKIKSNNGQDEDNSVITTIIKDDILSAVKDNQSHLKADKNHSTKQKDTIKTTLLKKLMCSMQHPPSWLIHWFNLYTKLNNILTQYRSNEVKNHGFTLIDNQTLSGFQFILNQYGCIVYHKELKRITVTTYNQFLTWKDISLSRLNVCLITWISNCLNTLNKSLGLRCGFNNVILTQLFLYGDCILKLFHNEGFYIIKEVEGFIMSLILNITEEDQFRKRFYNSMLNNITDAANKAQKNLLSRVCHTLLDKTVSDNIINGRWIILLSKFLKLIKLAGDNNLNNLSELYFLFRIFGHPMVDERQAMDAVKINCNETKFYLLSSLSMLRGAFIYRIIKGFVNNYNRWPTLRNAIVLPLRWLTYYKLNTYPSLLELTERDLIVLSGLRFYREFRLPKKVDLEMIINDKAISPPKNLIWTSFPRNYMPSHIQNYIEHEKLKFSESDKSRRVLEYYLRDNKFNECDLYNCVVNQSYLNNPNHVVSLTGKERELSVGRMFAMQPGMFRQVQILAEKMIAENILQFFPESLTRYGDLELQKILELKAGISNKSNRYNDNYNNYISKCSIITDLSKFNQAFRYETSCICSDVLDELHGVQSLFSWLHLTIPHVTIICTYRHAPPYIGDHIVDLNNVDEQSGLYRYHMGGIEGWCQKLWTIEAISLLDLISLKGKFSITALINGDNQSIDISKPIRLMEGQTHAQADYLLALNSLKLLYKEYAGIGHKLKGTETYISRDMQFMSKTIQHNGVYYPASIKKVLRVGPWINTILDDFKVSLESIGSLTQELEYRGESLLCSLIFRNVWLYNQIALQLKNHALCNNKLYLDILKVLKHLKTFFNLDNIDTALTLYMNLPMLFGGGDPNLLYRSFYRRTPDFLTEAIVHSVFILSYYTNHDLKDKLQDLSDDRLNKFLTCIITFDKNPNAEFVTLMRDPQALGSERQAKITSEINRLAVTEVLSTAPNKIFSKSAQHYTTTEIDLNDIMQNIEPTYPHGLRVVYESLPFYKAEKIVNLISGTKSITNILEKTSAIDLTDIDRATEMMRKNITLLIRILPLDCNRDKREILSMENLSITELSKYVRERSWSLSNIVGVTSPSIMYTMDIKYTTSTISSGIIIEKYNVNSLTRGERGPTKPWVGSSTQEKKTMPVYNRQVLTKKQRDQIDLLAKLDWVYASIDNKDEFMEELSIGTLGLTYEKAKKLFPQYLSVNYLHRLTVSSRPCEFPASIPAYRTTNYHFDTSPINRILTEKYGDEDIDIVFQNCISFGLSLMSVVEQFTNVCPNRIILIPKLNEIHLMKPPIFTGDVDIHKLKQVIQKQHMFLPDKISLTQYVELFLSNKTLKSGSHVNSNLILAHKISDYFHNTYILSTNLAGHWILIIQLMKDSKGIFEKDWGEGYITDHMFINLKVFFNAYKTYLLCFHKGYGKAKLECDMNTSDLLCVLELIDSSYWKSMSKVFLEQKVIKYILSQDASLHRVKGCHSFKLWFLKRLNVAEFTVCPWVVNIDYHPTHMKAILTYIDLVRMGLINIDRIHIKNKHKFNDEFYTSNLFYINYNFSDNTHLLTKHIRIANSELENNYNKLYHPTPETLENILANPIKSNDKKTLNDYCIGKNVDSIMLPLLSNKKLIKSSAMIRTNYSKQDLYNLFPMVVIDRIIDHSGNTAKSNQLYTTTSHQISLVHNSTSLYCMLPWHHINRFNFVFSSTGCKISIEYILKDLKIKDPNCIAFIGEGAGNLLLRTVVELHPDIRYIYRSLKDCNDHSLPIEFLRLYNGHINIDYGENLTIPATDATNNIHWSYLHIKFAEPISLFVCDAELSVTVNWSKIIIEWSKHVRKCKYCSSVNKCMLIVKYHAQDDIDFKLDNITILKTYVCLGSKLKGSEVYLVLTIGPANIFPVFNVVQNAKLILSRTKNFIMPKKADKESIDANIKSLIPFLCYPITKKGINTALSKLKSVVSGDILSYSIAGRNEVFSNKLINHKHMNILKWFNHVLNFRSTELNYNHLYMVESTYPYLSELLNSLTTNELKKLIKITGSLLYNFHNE
Sequence of recombinant RSV complex (P03421 whole entry, further chain): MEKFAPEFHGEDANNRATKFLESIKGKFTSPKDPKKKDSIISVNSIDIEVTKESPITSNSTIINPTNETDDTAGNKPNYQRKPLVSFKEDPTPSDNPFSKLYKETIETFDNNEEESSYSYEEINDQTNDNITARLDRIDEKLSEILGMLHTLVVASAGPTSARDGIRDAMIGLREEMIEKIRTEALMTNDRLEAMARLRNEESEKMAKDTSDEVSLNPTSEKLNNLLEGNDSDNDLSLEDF

Row | SMILES | IC50 (recombinant RSV complex) | CC50 at 5 days [1] | EC50 [2]
1 | COc1cc(C(=O)NC[C@@](O)(c2cc3c(c(-c4ccc(F)cc4)n2)OC[C@@]3(C)NO)C(F)(F)F)ccc1OC[C@@H](C)O [Compound 123] | < 1 µM | 10 to 100 µM | < 1 µM
2 | COc1nc(C(=O)NCC(O)(c2cc3c(c(-c4ccc(F)cc4)n2)OCC3(C)N)C(F)(F)F)cc2c1NC(=O)C2 (stereo not drawn) [Compound 47] | < 1 µM | 10 to 100 µM | < 1 µM
3 | COc1cc(C(=O)NC[C@@](O)(c2cc3c(c(-c4ccc(F)cc4)n2)OC[C@@]3(C)N)C(F)(F)F)cc2ccc(CO)nc12 [Compound 84] | < 1 µM | 10 to 100 µM | < 1 µM
4 | COc1cc(C(=O)NC[C@@](O)(c2cc(C3(C)CCN3)cc(-c3ccc(F)cc3)n2)C(F)(F)F)ccc1OC[C@@H](C)O (single isomer, unassigned) [Compound 15] | < 1 µM | 10 to 100 µM | < 1 µM
5 | COc1cc(C(=O)NC[C@@](O)(c2cc3c(c(-c4ccc(F)cc4)n2)NC[C@@]3(C)N)C(F)(F)F)ccc1OC1CC1 [Compound 127] | < 1 µM | 10 to 100 µM | < 1 µM
6 | COc1cc(C(=O)NC[C@](O)(c2cc3c(c(-c4ccc(F)cc4)n2)OC[C@]3(N)C2CC2)C(F)(F)F)ccc1OC[C@@H](C)O (single isomer, unassigned) [Compound 107] | < 50 µM | 10 to 100 µM | 1 to 50 µM
7 | COc1cc(C(=O)NCC(O)(c2cc3c(c(-c4ccc(F)cc4)n2)OCC3(C)N)C(F)(F)F)cc2c1NC(=O)CC2 (stereo not drawn) [Compound 11] | < 1 µM | 10 to 100 µM | < 1 µM
8 | CC(C)(N)c1cc(-c2ccc(F)cc2)nc(C(N)(CNC(=O)c2ccc(OC3CC3)c(OCCO)c2)C(F)(F)F)c1 (stereo not drawn) [Compound 41] | < 1 µM | 10 to 100 µM | < 1 µM
9 | COc1cc(C(=O)NC[C@@](O)(c2cc3c(c(-c4ccc(F)cc4)n2)OC[C@@]3(C)N)C(F)(F)F)ccc1-c1nc(C)no1 [Compound 19] | < 1 µM | 10 to 100 µM | < 1 µM
10 | COc1cc(C(=O)NCC(O)(c2cc(C(C)CCN)cc(-c3ccc(F)cc3)n2)C(F)(F)F)ccc1OCCO (stereo not drawn) [Compound 13] | < 1 µM | 10 to 100 µM | < 1 µM
11 | C[C@@]1(N)COc2c1cc([C@](O)(CNC(=O)c1ccc(OCCO)c(OC3CC3)c1)C(F)(F)F)nc2-c1ccc(F)cc1 [Compound 55] | < 1 µM | 10 to 100 µM | < 1 µM
12 | COc1cc(C(=O)NC[C@@](O)(c2cc3c(c(-c4ccc(F)cc4)n2)OC[C@@]3(C)N)C(F)(F)F)cc2ccc(C(C)(C)O)nc12 [Compound 90] | < 1 µM | 10 to 100 µM | < 1 µM
13 | COc1cc(C(=O)NCC(O)(c2cc(C(C)(N)C3CC3)cc(-c3ccc(F)cc3)n2)C(F)(F)F)ccc1OC[C@@H](C)O (stereo partly drawn) [Compound 88] | < 1 µM | 10 to 100 µM | < 1 µM
14 | COc1cc(C(=O)NC[C@@](O)(c2cc3c(c(-c4ccc(F)cc4)n2)OC[C@@]3(C)N)C(F)(F)F)cc2nc[nH]c12 [Compound 95] | < 1 µM | 10 to 100 µM | < 1 µM
15 | COc1cc(C(=S)NCC(O)(c2cc3c(c(-c4ccc(F)cc4)n2)OCC3(C)N)C(F)(F)F)ccc1OCCO (stereo not drawn) [Compound 44] | < 1 µM | 10 to 100 µM | < 1 µM
16 | CC1(N)COc2c1cc(C(O)(CNC(=O)c1ccc(OCCO)c(OC3CC3)c1)C(F)(F)F)nc2-c1ccc(F)cc1 (stereo not drawn) [Compound 24] | < 1 µM | 10 to 100 µM | < 1 µM
17 | CC1(N)COc2c1cc(C(O)(CNC(=O)c1ccc(CO)c(OC3CC3)c1)C(F)(F)F)nc2-c1ccc(F)cc1 (stereo not drawn) [Compound 22] | < 1 µM | 10 to 100 µM | < 1 µM
18 | COc1cc(C(=O)NCC(O)(c2cc(C3CCNCC3)cc(-c3ccc(F)cc3)n2)C(F)(F)F)ccc1OCCO (stereo not drawn) [Compound 18] | < 1 µM | 10 to 100 µM | < 1 µM
19 | COc1cc(C(=O)NC[C@@](O)(c2cc3c(c(-c4ccc(F)cc4)n2)OC[C@@]3(C)N)C(F)(F)F)cc(F)c1OC[C@@H](C)O [Compound 122] | < 1 µM | 10 to 100 µM | < 1 µM
20 | C[C@@]1(N)CNc2c1cc([C@](O)(CNC(=O)c1ccc(OCCO)c(OC3CC3)c1)C(F)(F)F)nc2-c1ccc(F)cc1 [Compound 61] | < 1 µM | 10 to 100 µM | < 1 µM
21 | COc1cc(C(=O)NC[C@@](O)(c2cc3c(c(-c4ccc(F)cc4)n2)N(C)C[C@@]3(C)N)C(F)(F)F)ccc1OCCO [Compound 79] | < 1 µM | 10 to 100 µM | < 1 µM
22 | COc1cc(C(=O)NC[C@@](O)(c2cc3c(c(-c4ccc(F)cc4)n2)OC[C@@]3(C)NC2COC2)C(F)(F)F)ccc1OC[C@@H](C)O [Compound 131] | < 1 µM | 10 to 100 µM | < 1 µM
23 | COc1cc(C(=O)NC[C@@](O)(c2cc3c(c(-c4ccc(F)cc4)n2)OC[C@@]3(C)N)C(F)(F)F)cc2ccc(C(C)O)nc12 (stereo partly drawn) [Compound 91] | < 1 µM | 10 to 100 µM | < 1 µM
24 | CC(C)(N)c1cc(-c2ccc(F)cc2)nc([C@@](O)(CNC(=O)c2ccc(OC3CC3)c(OCCO)c2)C(F)(F)F)c1 [Compound 59] | < 1 µM | 10 to 100 µM | < 1 µM
25 | COc1cnc(C(=O)NCC(O)(c2cc3c(c(-c4ccc(F)cc4)n2)OCC3(C)N)C(F)(F)F)cc1OC (stereo not drawn) [Compound 20] | < 1 µM | 10 to 100 µM | < 1 µM
26 | C[C@@]1(N)COc2c1cc([C@](O)(CNC(=O)c1cc(OCCO)c3[nH]ccc3c1)C(F)(F)F)nc2-c1ccc(F)cc1 [Compound 124] | < 1 µM | 10 to 100 µM | < 1 µM
27 | COc1cc(C(=O)NC[C@@](O)(c2cc3c(c(-c4ccc(F)cc4)n2)NC[C@@]3(C)N)C(F)(F)F)ccc1OC[C@@H](C)O [Compound 69] | < 1 µM | 10 to 100 µM | < 1 µM
28 | COc1cc(C(=O)NC[C@@](O)(c2cc3c(c(-c4ccc(F)cc4)n2)NC[C@@]3(C)N)C(F)(F)F)ccc1OCC(N)=O [Compound 72] | < 1 µM | > 100 µM | < 1 µM
